{
  "source": "patent US11229641B2",
  "about": "“Inhibitors of Bcl-2” (CASE WESTERN RESERVE UNIVERSITY, priority 2016, dated 2022)",
  "key": {"Bcl-XL": {"target": "Bcl-XL (Homo sapiens, UniProt Q07817)", "sequence (Q07817 whole entry, species assumed)": "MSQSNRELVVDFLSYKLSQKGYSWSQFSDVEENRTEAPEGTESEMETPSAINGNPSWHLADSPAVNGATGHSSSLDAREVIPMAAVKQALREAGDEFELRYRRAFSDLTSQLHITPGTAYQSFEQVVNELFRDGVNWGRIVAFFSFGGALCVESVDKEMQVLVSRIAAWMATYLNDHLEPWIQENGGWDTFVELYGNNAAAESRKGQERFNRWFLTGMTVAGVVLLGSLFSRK", "conditions": "read-out: IC50 displacing BH3 peptides; cited from earlier work"}, "Bcl-B": {"target": "T1, Bcl-B (Homo sapiens, UniProt Q9HD36)", "T1 sequence (Q9HD36 1-204)": "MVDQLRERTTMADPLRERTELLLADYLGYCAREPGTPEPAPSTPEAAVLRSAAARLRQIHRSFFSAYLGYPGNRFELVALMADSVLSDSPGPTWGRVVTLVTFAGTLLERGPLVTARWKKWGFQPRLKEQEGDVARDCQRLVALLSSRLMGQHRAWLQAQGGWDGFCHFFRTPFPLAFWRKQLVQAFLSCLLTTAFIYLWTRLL", "conditions": "read-out: IC50 displacing BH3 peptides; cited from earlier work"}, "Bfl-1": {"target": "T2, Bfl-1 (Homo sapiens, UniProt Q16548)", "T2 sequence (Q16548 1-175)": "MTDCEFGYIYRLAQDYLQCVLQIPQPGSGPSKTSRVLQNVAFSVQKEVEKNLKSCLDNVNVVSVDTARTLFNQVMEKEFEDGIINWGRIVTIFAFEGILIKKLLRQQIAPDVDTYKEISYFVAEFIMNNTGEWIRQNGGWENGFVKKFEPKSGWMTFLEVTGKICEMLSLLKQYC", "conditions": "read-out: IC50 displacing BH3 peptides; cited from earlier work"}, "Jurkat cells": {"system": "Jurkat cells", "assay": "Cytoplasmic Ca2+ elevation by digital imaging in Jurkat cells", "format": "cell-based", "experimental": "These compounds, along with 320 additional compounds chosen by virtual screening, were screened for hit confirmation. Also, a secondary assay for compound effect on apoptosis was performed in KMS-12-BM cells. […] Thus, a total of 39 compounds were chosen for triplicate confirmation screening. The findings are schematically summarized by means of the heat map in FIG. 5. An ID number, assigned by the chemist(s) who synthesized the compounds, is located to the left. This ID is for identification purposes only and does provide other information about the compound. Columns 1 and 2 represent caspase activity, measured after 24 hr of treatment at UCDDC, normalized to the highest caspase activity observed. Activity levels range from low, represented by the color purple, to high, represented by the color red. Considerable variation among different compounds and between the myeloma lines is observed evident. […] In addition, the same assay was used to test the sensitivity of primary human CLL cells to each compound, as summarized in lane 5. The effect of each compound on intracellular Ca^2+ concentration was measured by digital imaging and results are shown as percentage of cells responding with a significant (more than twofold above baseline) elevation of cytoplasmic Ca^2+ concentration. […] An example of Ca2^+ elevation in response to one of the compounds is illustrated in FIG. 6. […]"}, "BH4 domain of Bcl-2": {"target": "T3, BH4 domain of Bcl-2 (Homo sapiens, UniProt P10415)", "T3 construct": "borders or tags not given", "T3 sequence (P10415 6-30 limits assumed)": "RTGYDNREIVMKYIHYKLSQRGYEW", "assay": "Surface plasmon resonance (Biacore) binding to the BH4 domain of Bcl-2", "conditions": "SPR; for Kd: dose response / full binding curve", "excerpt": "The next step in compound validation was to perform surface plasmon resonance (Biacore) to test for binding to the BH4 domain of Bcl-2. […] To date, we have positive evidence of compound binding to the BH4 domain in 4 compounds tested by SPR (FIG. 8). Testing of the remaining compounds from the 14 lead compounds is in progress."}, "multiple myeloma lines": {"system": "multiple myeloma lines", "assay": "Cell death induction in multiple myeloma lines (MTS assay)", "format": "cell-based, human", "experimental": "(§1) Of the compounds tested, 148 were identified as hits at 6.5 μM in the primary single-point screen with activity>30% relative to apoptosis induced by 10 μM BIRD-2 in NCI-H929 cells. These compounds, along with 320 additional compounds chosen by virtual screening, were screened for hit confirmation. Also, a secondary assay for compound effect on apoptosis was performed in KMS-12-BM cells. […] Thus, a total of 39 compounds were chosen for triplicate confirmation screening. The findings are schematically summarized by means of the heat map in FIG. 5. An ID number, assigned by the chemist(s) who synthesized the compounds, is located to the left. This ID is for identification purposes only and does provide other information about the compound. Columns 1 and 2 represent caspase activity, measured after 24 hr of treatment at UCDDC, normalized to the highest caspase activity observed. Activity levels range from low, represented by the color purple, to high, represented by the color red. Considerable variation among different compounds and between the myeloma lines is observed evident. Columns 3 and 4 in the heat map (FIG. 5) summarize results of cell death assays testing cell death induction in the same myeloma lines in the Distelhorst laboratory using the MTS assay. In addition, the same assay was used to test the sensitivity of primary human CLL cells to each compound, as summarized in lane 5. The effect of each compound on intracellular Ca^2+ concentration was measured by digital imaging and results are shown as percentage of cells responding with a significant (more than twofold above baseline) elevation of cytoplasmic Ca^2+ concentration. The choice of the Jurkat line for these Ca^2+ measurements was based on our extensive evidence that BIRD-2 binds to the BH4 domain of Bcl-2 endogenously present in this line and that disruption of Bcl-2-IP3R interaction by BIRD-2 elevates cytoplasmic Ca^2+ in this line. An example of Ca2^+ elevation in response to one of the compounds is illustrated in FIG. 6."}, "primary human CLL cells [1]": {"system": "primary human CLL cells", "assay": "Cell death induction in primary human CLL cells (MTS assay)", "format": "cell-based", "experimental": "as §1"}, "[2]": {"system": "small cell lung cancer (SCLC) cells", "assay": "Cytotoxicity in small cell lung cancer (SCLC) lines", "format": "cell-based"}, "[3]": {"system": "KMS-12-BM human myeloma cells", "assay": "Combination with ABT-263, cell viability by CellTiter-Glo assay", "format": "cell-based", "conditions": "fixed concentration ratio, at several compound concentrations, CI<1 synergistic", "excerpt": "Since Bcl-2 works by two distinct mechanisms to inhibit apoptosis, we investigated the possibility that 854697 and ABT-263, which selectively target each of these mechanisms, might synergistically kill cancer cells. […] Combination indices (CI) were computed at each concentration to determine whether the increased cytotoxicity is due to an additive (CI=1) or synergistic (CI<1) effect. At several compound concentrations, the CI was <1, indicating synergistic cell death induction when these agents that act by different mechanisms are combined. These findings indicate additional value in developing 854697 as a novel therapeutic agent for Bcl-2-positive malignancies."}, "primary human CLL cells [4]": {"system": "primary human CLL cells", "assay": "Ca2+ elevation in primary CLL cells", "format": "cell-based"}, "[5]": {"system": "normal human peripheral blood lymphocytes", "assay": "Toxicity toward normal cells", "format": "cell-based"}, "[6]": {"system": "H2171 Small cell lung cancer (SCLC) cells", "assay": "BIRD-2/ABT-263 combination cytotoxicity in SCLC cells", "format": "cell-based", "conditions": "24 hr, FIG. 4", "experimental": "FIG. 4 is a graph illustrating BIRD-2/ABT-263 synergism. H2171 Small cell lung cancer (SCLC) cells treated from 24 hr with 5 μM BIB1 and 39 nM ABT-263 alone or together."}, "[7]": {"system": "human myeloma cell lines (HMCLs)", "assay": "Apoptosis induction in human myeloma cell lines (HMCLs)", "format": "cell-based", "conditions": "including two lines resistant to ABT-737, ABT-263 and ABT-199", "excerpt": "Furthermore, one of the BIRD-2-sensitive lines, NCI-H929, corresponds to a multiple molecular subgroup that is resistant to BH3-mimetic agents and belongs to a poor prognosis category associated with chromosomal translocation. Thus, although BH3-mimetic agents represent a major advance in cancer treatment, resistance to these agents occurs and limits their efficacy, not only in multiple myeloma but other lymphoid malignancies as well. The resistance problem is not unique to HMCLs, but is illustrated by studies of ABT-737 and ABT-199 in primary MM cells where resistance was detected in more than half of primary patient samples tested. Therefore, these findings indicate the potential therapeutic importance of targeting both of Bcl-2's anti-apoptotic mechanisms. Adding to the potential value of targeting Bcl-2-IP3R interaction for treatment of multiple myeloma is the evidence reported here of synergistic activity when combined with chemotherapeutic agents typically employed in multiple myeloma treatment, and with ABT-263 and ABT-199."}},
  "note": "“And” between values parts separate entries of the source, which are not always exact repeats. Identical values can stand only once. Where no end group is shown, it is not given here.",
  "data": [
    {"compound": "Cc1cc2c(C(C)C)c(O)c(O)c(C=O)c2c(O)c1-c1c(C)cc2c(C(C)C)c(O)c(O)c(C=O)c2c1O", "note": "[Gossypol, 1,6,7,1′,6′,7′-Hexahydroxy-5,5′-diisopropyl-3,3′-dimethyl-[2,2′]binaphthalenyl-8,8′-dicarbaldehyde]", "values": [
      {"measurement": "IC50", "setting": "Bcl-XL", "result": "~0.5", "unit": "µM"},
      {"measurement": "IC50", "setting": "Bcl-B", "result": "~0.5", "unit": "µM"},
      {"measurement": "IC50", "setting": "Bfl-1", "result": "~0.5", "unit": "µM"}
    ]},
    {"compound": "COc1ccc2c(c1)CC[C@@H]1[C@@H]2CC[C@]2(C)[C@@H](NCCCCCCN3C(=O)C=CC3=O)CC[C@@H]12", "note": "[U73122, reference compound]", "values": [
      {"measurement": "effect on 854697-induced Ca2+ elevation", "setting": "Jurkat cells; Jurkat cells pretreated 30 min with U73122", "result": "completely blocked"}
    ]},
    {"compound": "O=C(/C=C/c1ccc(Cl)c(Cl)c1)NN1CCOC1=O", "note": "[compound 96505]", "values": [
      {"measurement": "binding to the BH4 domain of Bcl-2", "setting": "BH4 domain of Bcl-2", "result": "bind to the BH4 domain of Bcl-2"},
      {"measurement": "Kd", "setting": "BH4 domain of Bcl-2", "result": 24, "unit": "µM"},
      {"measurement": "cell death induction", "setting": "multiple myeloma lines", "result": "inducing cell death"},
      {"measurement": "cell death induction", "setting": "primary human CLL cells [1]", "result": "inducing cell death"}
    ]},
    {"compound": "CSc1c(C#N)c(N)nc(SCC(=O)c2ccc(OC(F)F)cc2)c1C#N", "note": "[compound 197392]", "values": [
      {"measurement": "binding to the BH4 domain of Bcl-2", "setting": "BH4 domain of Bcl-2", "result": "bind to the BH4 domain of Bcl-2"},
      {"measurement": "cell death induction", "setting": "multiple myeloma lines", "result": "inducing cell death"},
      {"measurement": "cell death induction", "setting": "primary human CLL cells [1]", "result": "inducing cell death"}
    ]},
    {"compound": "CN(C)C(=O)OCC(Cc1ccc2ccccc2c1)N1CCN(C(=O)C(N)Cc2ccc(F)cc2)C(CO)C1", "note": "(centres unmarked) [compound 854697]", "values": [
      {"measurement": "binding to the BH4 domain of Bcl-2", "setting": "BH4 domain of Bcl-2", "result": "bind to the BH4 domain of Bcl-2"},
      {"measurement": "Kd", "setting": "BH4 domain of Bcl-2", "result": "5.6 µM and 5.7 µM and 5.71 µM"},
      {"measurement": "killing of small cell lung cancer cells", "setting": "[2]", "result": "kills small cell lung cancer cells"},
      {"measurement": "Combination index (CI) with ABT-263", "setting": "[3]", "result": "< 1"},
      {"measurement": "Ca2+ elevation", "setting": "Jurkat cells; Jurkat cells", "result": "inducing IP3R-mediated Ca^2+ elevation"},
      {"measurement": "Ca2+ elevation", "setting": "primary human CLL cells [4]", "result": "induces Ca^2+ elevation"},
      {"measurement": "cell death induction", "setting": "multiple myeloma lines", "result": "inducing cell death"},
      {"measurement": "cell death induction", "setting": "primary human CLL cells [1]", "result": "inducing cell death"},
      {"measurement": "toxic activity toward normal cells", "setting": "[5]", "result": "does not have toxic activity toward normal cells"}
    ]},
    {"compound": "RKKRRQRRRGGNVYTEIKCNSLLPLAAIVRV [BIRD-2]", "values": [
      {"measurement": "selective cytotoxicity", "setting": "[2]; 15 SCLC lines treated", "result": "greater than two-fold selective cytotoxicity in 11 of the lines"},
      {"measurement": "cytotoxicity in combination with ABT-263", "setting": "[6]", "result": "synergistic cytotoxicity"},
      {"measurement": "apoptosis induction", "setting": "[7]", "result": "induces apoptosis"}
    ]}
  ]
}
